For the experiment, the target named is T1, P2X7 receptor (IL-1β release from THP-1 cells) (Homo sapiens, UniProt Q99572).
T1 construct: host or cells: THP-1 cells differentiated with LPS and IFN-γ
T1 sequence (Q99572 1-595): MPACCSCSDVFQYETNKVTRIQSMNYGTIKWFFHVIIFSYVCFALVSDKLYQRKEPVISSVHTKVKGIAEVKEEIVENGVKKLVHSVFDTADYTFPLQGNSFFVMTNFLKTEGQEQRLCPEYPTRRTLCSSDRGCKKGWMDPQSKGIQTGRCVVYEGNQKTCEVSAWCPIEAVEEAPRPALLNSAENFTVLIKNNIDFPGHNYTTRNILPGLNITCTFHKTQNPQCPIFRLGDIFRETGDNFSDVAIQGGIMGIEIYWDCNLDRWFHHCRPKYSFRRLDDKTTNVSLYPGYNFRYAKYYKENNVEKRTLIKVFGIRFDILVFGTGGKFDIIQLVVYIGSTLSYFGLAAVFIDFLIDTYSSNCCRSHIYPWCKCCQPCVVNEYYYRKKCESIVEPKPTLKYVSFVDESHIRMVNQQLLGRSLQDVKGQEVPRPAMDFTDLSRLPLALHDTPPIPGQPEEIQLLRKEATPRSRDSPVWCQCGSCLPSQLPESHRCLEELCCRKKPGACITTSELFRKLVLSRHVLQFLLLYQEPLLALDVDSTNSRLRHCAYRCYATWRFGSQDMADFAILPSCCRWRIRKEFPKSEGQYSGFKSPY
Briefly: IL-1β release assay in differentiated THP-1 cells stimulated with BzATP (Example 9). It counts as cell-based. As to conditions: for inhibition at 0.1 µM: 0.1 μM concentration; for inhibition at 0.1 µM / inhibition at 0.3 µM: read-out: IL-1β % Inhib. @ 0.3 or 0.1 μM; for IC50: released IL-1β as in Example 9, four parameter logistic fit. As for the experimental part: The cells are then pretreated for 30 minutes with the compound of interest at the appropriate concentration in RPMI media containing 100 IU/mL penicillin, 100 ug/mL streptomycin. […] 30 uL of cell supernatant is then collected and IL-1β levels determined via ELISA (R&D systems Cat. #HSLB50) according to manufacturer's recommendations using the Tecan Safire plate reader. Background adjusted IL-1β levels of drug treated and non-treated cells are used to calculate the percent inhibition.
The compounds set forth in Table 1 were tested for activity in a cellular model as described herein. […] Measurements were made and IC50 values, presented in Table 2, below, were determined by fitting the data to a four parameter logistic equation using GraphPad Prism software (GraphPad Software, Inc). The equation may be expressed by the following formula:
Y=Bottom+(Top−Bottom)/(1+10̂((Log EC50−X)*HillSlope))
Where X is the logarithm of concentration, Y is the response and Y starts at Bottom and goes to Top with a sigmoid shape.

Where [1] appears, read: 0.3 μM concentration, BzATP 250 uM.

SMILES strings stand for the structures.

Regarding `NC(=O)[C@H](Cc1ccccc1)n1ccc2c(NC(=O)CC34CC5CC(CC(C5)C3)C4)cccc2c1=O` [Compound 502], the inhibition at 0.1 µM (BzATP 250 uM) fell in the range of 51 to 75%.
As to `CC1CNC(CN2CCc3c(NC(=O)CC45CC6CC(CC(C6)C4)C5)cccc3C2=O)CN1` (stereo not drawn) [Compound 503], where the note is “BzATP 250 uM”, the inhibition at 0.1 µM is greater than 76%.
The IC50 is the concentration needed to halve the response being measured. Regarding `O=C(CC12CC3CC(CC(C3)C1)C2)Nc1cccc2c(=O)n(CC3CCCN3)ccc12` (stereo not drawn) [Compound 504], the IC50 was determined as 1.56 nM. Under setting [1], the inhibition at 0.3 µM was greater than 76%.
The matching figures for `O=C(CC12CC3CC(CC(C3)C1)C2)Nc1cccc2c(=O)n(C[C@@H]3CCCN3)ccc12` [Compound 505]: 0.65 nM and greater than 76%.
As for `O=C(CC12CC3CC(CC(C3)C1)C2)Nc1cccc2c(=O)n(C[C@H]3CCCN3)ccc12` [Compound 506], the IC50 was determined as 1 nM. Moreover, the inhibition at 0.3 µM under setting [1] was greater than 76%.
The matching figures for `NC(=O)Cn1ccc2c(NC(=O)CC34CC5CC(CC(C5)C3)C4)cccc2c1=O` [Compound 509]: 0.271 nM and greater than 76%.
The matching figures for `NC(=O)CCn1ccc2c(NC(=O)CC34CC5CC(CC(C5)C3)C4)cccc2c1=O` [Compound 510]: 1.04 nM and greater than 76%.
The matching figures for `NC(=O)[C@@H](CC1CCCCC1)n1ccc2c(NC(=O)CC34CC5CC(CC(C5)C3)C4)cccc2c1=O` [Compound 513]: 33.7 nM and greater than 76%.
For `NC(=O)C(Cc1c[nH]cn1)n1ccc2c(NC(=O)CC34CC5CC(CC(C5)C3)C4)cccc2c1=O` (stereo not drawn) [Compound 514], the IC50 amounted to 1.36 nM. Besides, under setting [1], the inhibition at 0.3 µM was greater than 76%.
The matching figures for `CC(C)C(CO)n1ccc2c(NC(=O)CC34CC5CC(CC(C5)C3)C4)cccc2c1=O` (stereo not drawn) [Compound 516, 2-Adamantan-1-yl-N-[2-(1-hydroxymethyl-2-methyl-propyl)-1-oxo-1,2-dihydro-isoquinolin-5-yl]-acetamide]: 0.049 nM and greater than 76%.
The matching figures for `C[C@@H](CO)n1ccc2c(NC(=O)CC34CC5CC(CC(C5)C3)C4)cccc2c1=O` [Compound 521]: 0.315 nM and greater than 76%.
The matching figures for `CC12CC3CC(C)(C1)CC(CC(=O)Nc1cccc4c(=O)n(CC(N)=O)ccc14)(C3)C2` [Compound 523]: 1.5 nM and greater than 76%.
On to `C[C@@H](CO)n1ccc2c(NC(=O)CC34CC5CC(C)(CC(C)(C5)C3)C4)cccc2c1=O` [Compound 524], for which the IC50 was 0.204 nM. The inhibition at 0.3 µM under setting [1] was greater than 76%.
The matching figures for `C[C@H](CO)n1ccc2c(NC(=O)CC34CC5CC(C)(CC(C)(C5)C3)C4)cccc2c1=O` [Compound 525]: 3.23 nM and greater than 76%.
Take `C[C@@H](CO)N1CCc2c(NC(=O)CC34CC5CC(CC(C5)C3)C4)cccc2C1=O` [Compound 527]: the IC50 was determined as 0.149 nM. Moreover, the inhibition at 0.3 µM under setting [1] was greater than 76%.
The matching figures for `CC(C)[C@H](C(N)=O)n1ccc2c(NC(=O)CC34CC5CC(CC(C5)C3)C4)cccc2c1=O` [Compound 528]: 0.181 nM and greater than 76%.
The matching figures for `CC(C(N)=O)n1ccc2c(NC(=O)CC34CC5CC(C)(CC(C)(C5)C3)C4)cccc2c1=O` (stereo not drawn) [Compound 531]: 4.13 nM and greater than 76%.
With `CC(C)(C)OC(=O)N1CCC(CC(=O)Nc2cccc3c(=O)n(CCO)ccc23)CC1` [Compound 532], the half-inhibitory concentration (IC50) is greater than 1000 nM. Further, the inhibition at 0.3 µM under setting [1] is 0 to 25%.
With `NC(=O)CN1CCc2c(NC(=O)CC34CC5CC(CC(C5)C3)C4)cccc2C1=O` [Compound 533], the IC50 stood at 4.79 nM. For the same compound, the inhibition at 0.3 µM under setting [1] is greater than 76%.
For the compound `C[C@H](CO)N1CCc2c(NC(=O)CC34CC5CC(C)(CC(C)(C5)C3)C4)cccc2C1=O` [Compound 534], the IC50 was determined as 11.5 nM. Under setting [1], the inhibition at 0.3 µM is greater than 76%.
The matching figures for `C[C@@H](CO)N1CCc2c(NC(=O)CC34CC5CC(C)(CC(C)(C5)C3)C4)cccc2C1=O` [Compound 535]: 0.341 nM and greater than 76%.
Take `CC(C)[C@H](C(N)=O)n1ccc2c(NC(=O)CC34CC5CC(CC(C5)C3)C4)cccc2c1=O` [Compound 536]: the IC50 turned out to be 0.202 nM. Moreover, the “IL-1β % Inhib. @ 0.3 or 0.1 μM” value under setting [1] is on record as “++++ (compound exhibited 76% or greater inhibition at 0.3 μM concentration)”.
`CC(C)(C)OC(=O)N1CCC(C(=O)Nc2cccc3c(=O)n(CCO)ccc23)CC1` [Compound 537]: the IC50 is greater than 1000 nM. In addition, the inhibition at 0.3 µM under setting [1] lay in the range of 0 to 25%.
The matching figures for `CC(C)C(CO)n1ccc2c(NC(=O)CC3CCCCCC3)cccc2c1=O` (stereo not drawn) [Compound 538]: 1.86 nM and greater than 76%.
Turning to `C[C@H]1CC[C@H](C(=O)Nc2cccc3c(=O)n(CC4(O)CCCCC4)ccc23)CC1` [Compound 539], the inhibition at 0.1 µM (BzATP 250 uM) is 0 to 25%.
With `O=C(CC1CCCCC1)Nc1cccc2c(=O)n(CCO)ccc12` [Compound 545], the IC50 came out at 906 nM. The inhibition at 0.3 µM under setting [1] is 0 to 25%.
On to `CC1(C)CC(C)(C)CC(O)(CC(=O)Nc2cccc3c(=O)n(CCO)ccc23)C1` [Compound 546], for which the 50% inhibitory concentration (IC50) amounted to 135 nM. Further, the inhibition at 0.3 µM under setting [1] was greater than 76%.
For the compound `CC1(C)CCCC(O)(CC(=O)Nc2cccc3c(=O)n(CCO)ccc23)C1` (stereo not drawn) [Compound 547], the IC50 was determined as 287 nM. Moreover, the inhibition at 0.3 µM under setting [1] was 51 to 75%.
The matching figures for `O=C(CC12CC3CC(CC(C3)C1)C2)Nc1cccc2c1CCN(CCO)C2=O` [Compound 549, 2-Adamantan-1-yl-N-[2-(2-hydroxy-ethyl)-1-oxo-1,2,3,4-tetrahydro-isoquinolin-5-yl]-acetamide]: 1.37 nM and greater than 76%.
The matching figures for `O=C(CC1CCCCC1)Nc1cccc2c(=O)n(C(CO)CO)ccc12` [Compound 550]: 266 nM and 51 to 75%.
Take `NC(=O)C(CO)n1ccc2c(NC(=O)CC3CCCCCC3)cccc2c1=O` (stereo not drawn) [Compound 551, 2-[5-(2-Cycloheptyl-acetylamino)-1-oxo-1H-isoquinolin-2-yl]-3-hydroxy-propionamide]: the IC50 stood at 32.7 nM. For the same compound, the inhibition at 0.3 µM under setting [1] is greater than 76%.
The matching figures for `O=C(CC1(O)CCCCCC1)Nc1cccc2c(=O)n(C(CO)CO)ccc12` [Compound 552]: 760 nM and 0 to 25%.
Consider `CC1(C)CCCC(O)(CC(=O)Nc2cccc3c(=O)n(C(CO)CO)ccc23)C1` (stereo not drawn) [Compound 553], for which the IC50 came out at 203 nM. The inhibition at 0.3 µM under setting [1] is 51 to 75%.
The matching figures for `C[C@@H](C(N)=O)n1ccc2c(NC(=O)CC3CCCCCC3)cccc2c1=O` [Compound 554]: 12.3 nM and greater than 76%.
The matching figures for `C[C@@H](C(N)=O)n1ccc2c(NC(=O)CC3(O)CC(C)(C)CC(C)(C)C3)cccc2c1=O` [Compound 556]: 257 nM and 51 to 75%.
The matching figures for `C[C@@H](C(N)=O)n1ccc2c(NC(=O)CC3(O)CCCCCC3)cccc2c1=O` [Compound 557]: 355 nM and 26 to 50%.

The record behind these values is patent publication US20100184802A1, “Bicycloheteroaryl Compounds as P2X7 Modulators and Uses Thereof” (priority 2006, published 2010).
